Measured values published in US10905691B2, “Use of triazolo(4,5-d)pyrimidine derivatives for prevention and treatment of bacterial infection” (Universite de Liege, priority 2016, dated 2021).

Columns and labels:
[1] = tested on: Escherichia coli (ATCC 8739); experiment: MIC determination with or without polymyxin B nonapeptide (PMBN); type: cell-based; details: PMBN alone up to 40 μg/ml
Method: Determination of Minimal Inhibitory Concentration (MIC) and Minimal Bactericidal Concentration (MBC) of Triafluocyl (Cayman Chemical, Item No. 15425) in presence of polymyxin B nonapeptide (PMBN) (Sigma-Aldrich Merk, Item No. P2076) against Escherichia coli (ATCC 8739). […] A single colony grown on a Luria-Bertani Agar (LB) plate was resuspended and cultured in LB medium overnight (O/N) in aerobic conditions (37° C. with 220 rpm shaking), next day a 1:50 inoculum in Mueller-Hinton broth (MHB) is incubated in aerobic conditions for 1 h30 (OD=0.08-0.1) and an inoculum corresponding to 3×10^6 colony forming unit (CFU)/ml, is incubated in presence or absence of different concentrations of Triafluocyl in 1% DMSO with or without 40 μg/ml Polymyxin B nonapeptide (PMBN) for 18 hr in aerobic conditions (37° C. with 220 rpm shaking). Growth of Escherichia coli in 7 conditions depicted in FIG. 11 is evaluated by reading the OD of each culture at 600 nm (OD600) in a spectrophotometer (Victor 3-Perkin Elmer). Determination of Minimal Inhibitory Concentration (MIC) and Minimal Bactericidal Concentration (MBC) of Fluometacyl in presence of polymyxin B nonapeptide (PMBN) (Sigma-Aldrich Merk, Item No. P2076) against Escherichia coli (ATCC 8739). The Minimal Inhibitory Concentration (MIC) represents the concentration, in a liquid culture, at which there is no visible growth of bacteria (no pellet or cloudiness), i.e. ΔOD at 600 nm equal to zero wherein ΔOD is the difference between the resulting optical density (OD) with the molecule together with PMBN, and the optical density (OD) of the blank (blank is the medium alone). A single colony grown on a Luria-Bertani Agar (LB) plate is resuspended and cultured in LB medium overnight (O/N) in aerobic conditions (37° C. with 220 rpm shaking), next day a 1:50 inoculum in Mueller-Hinton broth (MHB) is incubated in aerobic conditions for 1 h30 (OD=0.08-0.1) and an inoculum corresponding to 3×10^6 colony forming unit (CFU)/ml is incubated in presence or absence of different concentrations of Fluometacyl in 1% DMSO (vehicle) with or without 40 μg/ml Polymyxin B nonapeptide (PMBN) for 18 hr in aerobic conditions (37° C. with 220 rpm shaking). Growth of bacteria in the 7 individual cultures (FIG. 12A) is evaluated by reading the OD of each culture at 600 nm (OD600) in a spectrophotometer (Victor 3-Perkin Elmer).

[2] = tested on: S. aureus MRSA (ATCC BAA-1556); experiment: Killing curve (CFU counting); type: cell-based, Staphylococcus aureus; details: Triafluocyl 20 μg/ml
Method: S. aureus MRSA (ATCC BAA-1556) was grown overnight in brain heart infusion (BHI) medium, diluted 1:100 in fresh BHI, and incubated aerobically at 37° C. until bacteria growth reached a logarithmic phase (OD600=0.25-0.3).
Triafluocyl (Cayman Chemical, Item No. 15425) (20 μg/ml), Vancomycin (Sigma, 4 μg/ml or 10 μg/ml), Minocycline (Sigma, 8 μg/ml) or a solvent (DMSO) were added to 5 ml of S. aureus MRSA suspensions.
Bacterial growth for S. aureus MRSA was measured after different time intervals by counting the colony-forming units after plating appropriate culture dilutions on BHI agar plates.
S. aureus MRSA (ATCC BAA-1556) was grown overnight in BHI medium, then a 1:100 inoculum was diluted in fresh BHI and incubated aerobically at 37° C. until bacteria growth reached a logarithmic phase (OD600=0.25-0.3). The culture was split into two and challenged with 38 μM Fluometacyl (=18.2 μg/ml) or DMSO (Ctrl). Bacterial growth was measured after different time intervals by counting the colony-forming units after plating appropriate culture dilutions on BHI agar plates. (N=2)

Molecule | inhibition of E. coli growth [1] | effect on S. aureus MRSA viable count after the first two hours ([2]; Vancomycin 10-fold MIC, Minocycline 8-fold MIC, FIG. 8A) | bactericidal effect over the 24 h-experiment compared with Triafluocyl ([2]; Vancomycin 4 or 10 μg/ml, Minocycline 8 μg/ml)
polymyxin B nonapeptide [PMBN, reference compound] | unable to inhibit E. coli growth | – | –
CN[C@H](CC(C)C)C(=O)N[C@H]1C(=O)N[C@@H](CC(N)=O)C(=O)N[C@H]2C(=O)N[C@H]3C(=O)N[C@H](C(=O)N[C@H](C(=O)O)c4cc(O)cc(O)c4-c4cc3ccc4O)[C@H](O)c3ccc(c(Cl)c3)Oc3cc2cc(c3O[C@@H]2O[C@H](CO)[C@@H](O)[C@H](O)[C@H]2O[C@H]2C[C@](C)(N)[C@H](O)[C@H](C)O2)Oc2ccc(cc2Cl)[C@H]1O [Vancomycin, reference compound] | – | ineffective | less efficient
